Measured values taken from ChEMBL document CHEMBL6109059, “Synthesis and biofilm inhibitory activity of cyclic dinucleotide analogues prepared with macrocyclic ribose-phosphate skeleton” (2025).
Active and inactive are the calls of the source. No cut-off for these calls is given here.

Legend:
Pseudomonas aeruginosa [1] = experiment: Antibacterial activity against Pseudomonas aeruginosa NBRC13275; format: functional, organism-based
Pseudomonas aeruginosa [2] = experiment: Inhibition of biofilm formation in Pseudomonas aeruginosa NBRC13275 at 156 uM measured after 6 hrs by crystal violet staining based assay relative to control; format: functional
Escherichia coli [3] = experiment: Potency index, ratio of compound effect to c-di-GMP effect on inhibition of biofilm formation in Escherichia coli DH5alpha; format: functional
Escherichia coli [4] = experiment: Antibacterial activity against Escherichia coli DH5alpha; format: functional, organism-based
Staphylococcus aureus [5] = experiment: Inhibition of biofilm formation in Staphylococcus aureus NBRC13276 at 156 uM measured after 24 hrs by crystal violet staining based assay relative to control; format: functional
Staphylococcus aureus [6] = experiment: Antibacterial activity against Staphylococcus aureus NBRC13276; format: functional, organism-based
Escherichia coli [7] = experiment: Inhibition of biofilm formation in Escherichia coli DH5alpha at 156 uM measured after 24 hrs by crystal violet staining based assay relative to control; format: functional; settings: DH5-alpha

O=P1(O)OC[C@H]2O[C@@H](n3cc(-c4cccc(F)c4)nn3)[C@H](O)[C@@H]2OP(=O)(O)OC[C@H]2O[C@@H](n3cc(-c4cccc(F)c4)nn3)[C@H](O)[C@@H]2O1
Activity (Pseudomonas aeruginosa [1]): inactive | inhibition at 156 µM (Pseudomonas aeruginosa [2]): 57.7% | Ratio (Escherichia coli [3]): 2 | Activity (Escherichia coli [4]): inactive | inhibition at 156 µM (Staphylococcus aureus [5]): 7.15% | Activity (Staphylococcus aureus [6]): inactive | inhibition at 156 µM (Escherichia coli [7]): 30.6%

O=P1(O)OC[C@H]2O[C@@H](n3cc(-c4ccc(Br)cc4)nn3)[C@H](O)[C@@H]2OP(=O)(O)OC[C@H]2O[C@@H](n3cc(-c4ccc(Br)cc4)nn3)[C@H](O)[C@@H]2O1
Activity (Pseudomonas aeruginosa [1]): inactive | inhibition at 156 µM (Pseudomonas aeruginosa [2]): 46% | Ratio (Escherichia coli [3]): 2 | Activity (Escherichia coli [4]): inactive | inhibition at 156 µM (Staphylococcus aureus [5]): 21.2% | Activity (Staphylococcus aureus [6]): inactive | inhibition at 156 µM (Escherichia coli [7]): 35.1%

O=P1(O)OC[C@H]2O[C@@H](n3cc(-c4ccc(F)c(F)c4)nn3)[C@H](O)[C@@H]2OP(=O)(O)OC[C@H]2O[C@@H](n3cc(-c4ccc(F)c(F)c4)nn3)[C@H](O)[C@@H]2O1
Activity (Pseudomonas aeruginosa [1]): inactive | inhibition at 156 µM (Pseudomonas aeruginosa [2]): 51.4% | Ratio (Escherichia coli [3]): 2 | Activity (Escherichia coli [4]): inactive | inhibition at 156 µM (Staphylococcus aureus [5]): 15.9% | Activity (Staphylococcus aureus [6]): inactive | inhibition at 156 µM (Escherichia coli [7]): 24.4%

Nc1nc2c(ncn2[C@@H]2O[C@@H]3COP(=O)(O)O[C@H]4[C@@H](O)[C@H](n5cnc6c(=O)[nH]c(N)nc65)O[C@@H]4COP(=O)(O)O[C@H]3[C@H]2O)c(=O)[nH]1
inhibition at 156 µM (Pseudomonas aeruginosa [2]): 52.9% | inhibition at 156 µM (Escherichia coli [7]): 12.5%

O=P1(O)OC[C@H]2O[C@@H](n3cc(-c4ccccc4F)nn3)[C@H](O)[C@@H]2OP(=O)(O)OC[C@H]2O[C@@H](n3cc(-c4ccccc4F)nn3)[C@H](O)[C@@H]2O1
Activity (Pseudomonas aeruginosa [1]): inactive | inhibition at 156 µM (Pseudomonas aeruginosa [2]): 59.4% | Ratio (Escherichia coli [3]): 2 | Activity (Escherichia coli [4]): inactive | inhibition at 156 µM (Staphylococcus aureus [5]): 16% | Activity (Staphylococcus aureus [6]): inactive | inhibition at 156 µM (Escherichia coli [7]): 39.1%

O=P1(O)OC[C@H]2O[C@@H](n3cc(-c4cc(F)cc(F)c4)nn3)[C@H](O)[C@@H]2OP(=O)(O)OC[C@H]2O[C@@H](n3cc(-c4cc(F)cc(F)c4)nn3)[C@H](O)[C@@H]2O1
Activity (Pseudomonas aeruginosa [1]): inactive | inhibition at 156 µM (Pseudomonas aeruginosa [2]): 47.3% | Ratio (Escherichia coli [3]): 2 | Activity (Escherichia coli [4]): inactive | inhibition at 156 µM (Staphylococcus aureus [5]): 8.24% | Activity (Staphylococcus aureus [6]): inactive | inhibition at 156 µM (Escherichia coli [7]): 45.8%

O=P1(O)OC[C@H]2O[C@@H](n3cc(-c4ccc(F)cc4)nn3)[C@H](O)[C@@H]2OP(=O)(O)OC[C@H]2O[C@@H](n3cc(-c4ccc(F)cc4)nn3)[C@H](O)[C@@H]2O1
Activity (Pseudomonas aeruginosa [1]): inactive | inhibition at 156 µM (Pseudomonas aeruginosa [2]): 57.9% | Ratio (Escherichia coli [3]): 2 | Activity (Escherichia coli [4]): inactive | inhibition at 156 µM (Staphylococcus aureus [5]): 4.86% | Activity (Staphylococcus aureus [6]): inactive | inhibition at 156 µM (Escherichia coli [7]): 25.1%

O=P1(O)OC[C@H]2O[C@@H](n3cc(-c4ccncc4)nn3)[C@H](O)[C@@H]2OP(=O)(O)OC[C@H]2O[C@@H](n3cc(-c4ccncc4)nn3)[C@H](O)[C@@H]2O1
Activity (Pseudomonas aeruginosa [1]): inactive | inhibition at 156 µM (Pseudomonas aeruginosa [2]): 21.9% | Ratio (Escherichia coli [3]): 2 | Activity (Escherichia coli [4]): inactive | inhibition at 156 µM (Staphylococcus aureus [5]): 39.6% | Activity (Staphylococcus aureus [6]): inactive | inhibition at 156 µM (Escherichia coli [7]): 34.2%

COc1ccc(-c2cn([C@@H]3O[C@@H]4COP(=O)(O)O[C@H]5[C@@H](O)[C@H](n6cc(-c7ccc(OC)cc7)nn6)O[C@@H]5COP(=O)(O)O[C@H]4[C@H]3O)nn2)cc1
Activity (Pseudomonas aeruginosa [1]): inactive | inhibition at 156 µM (Pseudomonas aeruginosa [2]): 53.3% | Ratio (Escherichia coli [3]): 2 | Activity (Escherichia coli [4]): inactive | inhibition at 156 µM (Staphylococcus aureus [5]): 19% | Activity (Staphylococcus aureus [6]): inactive | inhibition at 156 µM (Escherichia coli [7]): 36.7%

O=P1(O)OC[C@H]2O[C@@H](n3cc(-c4ccccc4)nn3)[C@H](O)[C@@H]2OP(=O)(O)OC[C@H]2O[C@@H](n3cc(-c4ccccc4)nn3)[C@H](O)[C@@H]2O1
Activity (Pseudomonas aeruginosa [1]): inactive | inhibition at 156 µM (Pseudomonas aeruginosa [2]): 44.2% | Ratio (Escherichia coli [3]): 2 | Activity (Escherichia coli [4]): inactive | inhibition at 156 µM (Staphylococcus aureus [5]): 24.1% | Activity (Staphylococcus aureus [6]): inactive | inhibition at 156 µM (Escherichia coli [7]): 39.9%
